Reference: US20050187240A1, “Aaptamine and isoaaptamine and structural modifications thereof” (The Arizona Board of Regents, Acting for and on behalf of …, priority 2004, published 2005)
Like-named read-outs stand apart in the source and are kept apart here.

What was measured:
Escherichia coli = assay: Broth microdilution susceptibility assay, Escherichia coli; format: cell-based
PKC alpha [1] = molecular target: T1, PKC alpha (Homo sapiens, UniProt P17252); assay: Inhibition of PKC catalytic activity (peptide substrate phosphorylation); format: biochemical; conditions: for inhibition at 30 µM: read-out: percent inhibition of PKC catalytic activity
Text: We further evaluated the ability of the derivatives to inhibit PKC catalytic activity. […] Inhibition by 10c was 19.5±7.6% and inhibition by 4, 5, and 9a, b, c was 6% or less (all values are mean±SEM, three experiments). […] In both cases, the inhibition curves were steeper than predicted for a competitive inhibitor, consistent with a complicated mechanism of action (Hill coefficients for 10a and 10b of 1.5±0.1 and 2.0±0.5, respectively).

Streptococcus pneumoniae = assay: Broth microdilution susceptibility assay, Streptococcus pneumoniae; format: cell-based
[2] = test system: murine P388 lymphocytic leukemia cell line; assay: Cancer cell growth inhibition, murine P388 lymphocytic leukemia cell line; format: cell-based; conditions: Mus musculus
How it was run: (§1)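 Growth inhibition in murine P388 leukemia and human cancer cell line panels (Arizona State University minipanel and NCI 60-cell screen).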

Enterobacter cloacae = assay: Broth microdilution susceptibility assay, Enterobacter cloacae; format: cell-based
Micrococcus luteus = assay: Broth microdilution susceptibility assay, Micrococcus luteus; format: cell-based
Neisseria gonorrhoeae = assay: Broth microdilution susceptibility assay, Neisseria gonorrhoeae; format: cell-based
Cryptococcus neoformans = assay: Broth microdilution susceptibility assay, Cryptococcus neoformans; format: cell-based
Enterococcus faecalis = assay: Broth microdilution susceptibility assay, Enterococcus faecalis; format: cell-based
prostrate DU-145 = assay: Cancer cell growth inhibition, prostate DU-145; format: cell-based, human; conditions: Homo sapiens
Protocol: (§2) Biology The cancer cell growth inhibitory properties were examined using the murine P388 lymphocytic leukemia cell line and a selection of human cancer cell lines.
(§3) All of the synthetic products were evaluated against a minipanel of human cancer cell lines, the murine P388 lymphocytic leukemia cell line and a selection of microorganisms.

CNS SF-268 = assay: Cancer cell growth inhibition, CNS SF-268; format: cell-based, human; conditions: Homo sapiens, CNS SF-268
Protocol: as §2, §3

colon KM 20L2 = assay: Cancer cell growth inhibition, colon KM 20L2; format: cell-based, human; conditions: Homo sapiens, colon KM 20L2
How it was run: as §1

[3] = test system: Stenotrophomonas maltophilia; assay: Broth microdilution susceptibility assay, Stenotrophomonas maltophilia; format: cell-based
lung NCI-H460 = assay: Cancer cell growth inhibition, lung NCI-H460; format: cell-based, human; conditions: Homo sapiens, lung NCI-H460
How it was run: as §1

Candida albicans = assay: Broth microdilution susceptibility assay, Candida albicans; format: cell-based
breast MCF-7 = assay: Cancer cell growth inhibition, breast MCF-7; format: cell-based, human; conditions: Homo sapiens, MCF7, breast MCF-7
Protocol: as §2, §3

PKC alpha [4] = molecular target: T1, PKC alpha; assay: Inhibition of [3H]phorbol 12,13-dibutyrate binding to PKC alpha; conditions: read-out: inhibition of [3H]phorbol 12,13-dibutyrate binding to PKC alpha
How it was run: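 Compounds tested at a single 30 μM concentration for displacement of [3H]phorbol 12,13-dibutyrate binding to PKC alpha, reported as percent inhibition. Triplicate measurements in one or three independent experiments depending on compound.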

[5] = test system: Mycobacterium tuberculosis H37Rv; assay: Microplate Alamar Blue Assay, Mycobacterium tuberculosis; format: cell-based; conditions: 6.25 μg/ml
pancreas BXPC-3 = assay: Cancer cell growth inhibition, pancreas BXPC-3; format: cell-based, human; conditions: Homo sapiens, pancreas BXPC-3
Protocol: as §2, §3

[6] = test system: genes whose products are involved in DNA synthesis; assay: cDNA microarray assay with THP-1 cells; format: cell-based, human; conditions: THP-1 cells treated for 23 hours with 0.25 μg/ml
[7] = test system: THP-1 human monocytic leukemia cells; assay: Flow cytometry cell cycle analysis of THP-1 cells; format: cell-based; conditions: THP-1 cells pretreated for 24 hours with 0.25 μg/ml
Staphylococcus aureus = assay: Broth microdilution susceptibility assay, Staphylococcus aureus; format: cell-based
Vero cells = conditions: cited from earlier work
[8] = test system: herpes simplex virus type 1 (HSV-1); conditions: cited from earlier work
[9] = Table 5, leukemia P388, read-out: Cancer Cell Line Results ED50
[10] = DU-145, Table 5, prostate DRU-145, read-out: Cancer Cell Line Results ED50
[11] = Table 5, read-out: Cancer Cell Line Results ED50
[12] = Table 4, read-out: Range of minimum inhibitory concentration
[13] = Table 3, read-out: Cancer cell growth inhibitory ED50

## COc1cc2c3c(cc[n+](Cc4ccccc4)c3c1OC)N(Cc1ccccc1)C=C2.[Cl-] [Compound 10a, 1,4-Bis-(benzyl)-8,9-dimethoxy-4H-benzo[de][1,6]naphthyridin-1-ium chloride]
Escherichia coli; Table 6
  Range of minimum inhibitory concentration: 8 µg/mL
PKC alpha [1]
  Hill coefficient of PKC inhibition curve: 1.5±0.1
  IC50: 20.8 ± 2.5 µM
  inhibition at 30 µM: 71.1 ± 4.5%
Streptococcus pneumoniae; Table 6
  Range of minimum inhibitory concentration: 32 µg/mL
other
  melting point: 175 °C (dec.)
[2]; [9]
  IC50: 0.234 µg/mL
Enterobacter cloacae; Table 6
  Range of minimum inhibitory concentration: * (no inhibition at 64 μg/mL)
Micrococcus luteus; Table 6
  Range of minimum inhibitory concentration: 0.5 to 2 µg/mL
Neisseria gonorrhoeae; Table 6
  Range of minimum inhibitory concentration: 0.25 µg/mL
Cryptococcus neoformans; Table 6
  Range of minimum inhibitory concentration: * (no inhibition at 64 μg/mL)
Enterococcus faecalis; Table 6
  Range of minimum inhibitory concentration: 32 µg/mL
Prostrate DU-145; [10]
  IC50: 0.036 µg/mL
CNS SF-268; [11]
  IC50: 0.064 µg/mL
Colon KM 20L2; [11]
  IC50: 0.055 µg/mL
[3]; Table 6
  Range of minimum inhibitory concentration: * (no inhibition at 64 μg/mL)
Lung NCI-H460; [11]
  IC50: 0.26 µg/mL
Candida albicans; Table 6
  Range of minimum inhibitory concentration: * (no inhibition at 64 μg/mL)
Breast MCF-7; [11]
  IC50: 0.27 µg/mL
PKC alpha [4]
  inhibition at 30 µM: 11.8%
[5]
  inhibition at 6.25 µg/mL: 98%
Pancreas BXPC-3; [11]
  IC50: 0.061 µg/mL
[6]
  down-regulation of several genes involved in DNA synthesis: 5- to 7 fold
[7]
  cell cycle effect (propidium iodide flow cytometry): accumulation of cells in the GI phase
Staphylococcus aureus; Table 6
  Range of minimum inhibitory concentration: * (no inhibition at 64 μg/mL)

## COc1cc2c3c(ccnc3c1OC)N(C)C=C2 [Compound 4, 4-Methylaaptamine]
Escherichia coli; [12]
  MIC: > 64 µg/mL
PKC alpha [1]; 30 μM compound, 1 μM phorbol 12-myristate 13-acetate, 100 μg/ml phospholipid, mean±SEM, three experiments
  inhibition at 30 µM: ≤ 6%
Streptococcus pneumoniae; [12]
  MIC: > 64 µg/mL
Vero cells
  toxicity to Vero cells: low toxicity
[2]; P388, Table 3, leukemia P-388, read-out: Cancer cell growth inhibitory ED50
  IC50: > 10 µg/mL
[2]; [9]
  IC50: > 10 µg/mL
Enterobacter cloacae; [12]
  MIC: > 64 µg/mL
Micrococcus luteus; [12]
  MIC: > 64 µg/mL
Neisseria gonorrhoeae; [12]
  MIC: > 64 µg/mL
[8]
  antiviral activity against HSV-1: potent antiviral activity
Cryptococcus neoformans; [12]
  MIC: > 64 µg/mL
Enterococcus faecalis; [12]
  MIC: > 64 µg/mL
Prostrate DU-145; [10]
  IC50: > 10 µg/mL
Prostrate DU-145; Table 3, prostrate DU-145, read-out: Cancer cell growth inhibitory ED50
  IC50: > 10 µg/mL
CNS SF-268; [13]
  IC50: > 10 µg/mL
CNS SF-268; [11]
  IC50: > 10 µg/mL
Colon KM 20L2; [13]
  IC50: > 10 µg/mL
Colon KM 20L2; [11]
  IC50: > 10 µg/mL
[3]; Table 4, Stenotrophomonas maltophil, read-out: Range of minimum inhibitory concentration
  MIC: > 64 µg/mL
Lung NCI-H460; [13]
  IC50: > 10 µg/mL
Lung NCI-H460; [11]
  IC50: > 10 µg/mL
Candida albicans; [12]
  MIC: > 64 µg/mL
Breast MCF-7; [13]
  IC50: > 10 µg/mL
Breast MCF-7; [11]
  IC50: > 10 µg/mL
Pancreas BXPC-3; [13]
  IC50: > 10 µg/mL
Pancreas BXPC-3; [11]
  IC50: > 10 µg/mL
Staphylococcus aureus; [12]
  MIC: > 64 µg/mL
